Test results from patent US6870056B1, “Substitituted polycyclic aryl and heteroaryl pyridones useful for selective inhibition of the coagulation cascade” (Pharmacia Corporation, priority 1999, dated 2005).

Assays:
Type in all cases: biochemical
[1] = target: T1, trypsin, type IX from porcine pancreas (Sus scrofa, UniProt P00761); assay: Trypsin Assay; conditions: L-BAPNA substrate, 60 min, room temperature, pH 8.0; read-out: Trpysin II ICSO
T1 construct: purchased Sigma, St Louis Mo. type IX; host or cells: porcine pancreas
Description: 5 ug/ml trypsin, type IX from porcine pancreas and 0.375 mM N-α-Benzoyl-L-arginine-p-nitroanilide (L-BAPNA) are added to a 96-well assay plate containing either inhibitor or buffer (50 mM Tris-HCl, pH 8.0, 100 mM NaCl, 0.1% BSA). The reactions, in a final volume of 100 ul are measured immediately at 405 nm to determine background absorbance. The plate is incubated at room temperature for 60 min, at which time the rate of hydrolysis of the substrate is measured by monitoring the reaction at 405 nm for the release of p-nitroaniline. Percent inhibition of trypsin activity is calculated from OD405 nm value from the experimental and control sample.
(§1) Recombinant soluble TF, consisting of amino acids 1-219 of the mature protein sequence was expressed in E. coli and purified using a Mono Q Sepharose FPLC. Recombinant human VIIa was purchased from American Diagnostica, Greenwich Conn. and chromogenic substrate N-Methylsulfonyl-D-phe-gly-arg-p-nitroaniline was prepared by American Peptide Company, Inc., Sunnyvale, Calif. Factor Xa was obtained from Enzyme Research Laboratories, South Bend Ind., thrombin from Calbiochem, La Jolla, Calif., and trypsin and L-BAPNA from Sigma, St Louis Mo. The chromogenic substrates S-2765 and S-2238 were purchased from Chromogenix, Sweden.

human factor Xa = target: T2, human factor Xa (Homo sapiens, UniProt P00742); assay: Xa Assay; conditions: S-2765 substrate, 60 min, room temperature, pH 8.0
T2 construct: leads from XII to XIIa to XIa to IXa and to the conversion of X to Xa; purchased Enzyme Research Laboratories, South Bend Ind
Description: (§2) 0.3 nM human factor Xa and 0.15 mM N-α-Benzyloxycarbonyl-D-arginyl-L-glycyl-L-arginine-p-nitroaniline-dihydrochloride (S-2765) are added to a 96-well assay plate containing either inhibitor or buffer (50 mM Tris-HCl, pH 8.0, 100 mM NaCl, 0.1% BSA). The reaction, in a final volume of 100 ul is measured immediately at 405 nm to determine background absorbance. The plate is incubated at room temperature for 60 min, at which time the rate of hydrolysis of the substrate is measured by monitoring the reaction at 405 nm for the release of p-nitroaniline. Percent inhibition of Xa activity is calculated from OD405 nm value from the experimental and control sample.
as §1

human thrombin = human thrombin (Homo sapiens, UniProt P00734); assay: Thrombin Assay; conditions: chromogenic substrate, 60 min, room temperature, pH 8.0; read-out: Thrombin II IC50
Description: Percent inhibition of thrombin activity is calculated from OD405 nm value from the experimental and control sample.
Recombinant human VIIa was purchased from American Diagnostica, Greenwich Conn. and chromogenic substrate N-Methylsulfonyl-D-phe-gly-arg-p-nitroaniline was prepared by American Peptide Company, Inc., Sunnyvale, Calif. Factor Xa was obtained from Enzyme Research Laboratories, South Bend Ind., thrombin from Calbiochem, La Jolla, Calif., and trypsin and L-BAPNA from Sigma, St Louis Mo.

[2] = target: T3, recombinant soluble tissue factor and recombinant human factor VIIa (TF-VIIa) (Homo sapiens, UniProt P08709); assay: TF-VIIa Assay; conditions: chromogenic substrate, 60 min, room temperature, pH 8.0
T3 construct: purchased American Diagnostica, Greenwich Conn; host or cells: soluble TF made in house in E. coli
Description: as §2, with “In this assay 100” for “0.3”, “nM recombinant soluble tissue factor and 2 nM recombinant” for “nM”, “VIIa” for “Xa and 0.15 mM N-α-Benzyloxycarbonyl-D-arginyl-L-glycyl-L-arginine-p-nitroaniline-dihydrochloride (S-2765)”, “containing 0.4 mM of the substrate, N-Methylsulfonyl-D-phe-gly-arg-p-nitroaniline and” for “containing”, “(5 mM CaCl2,50” for “(50”, “TF-VIIa” for “Xa”
as §1

T2 sequence (P00742 235-488 limits assumed): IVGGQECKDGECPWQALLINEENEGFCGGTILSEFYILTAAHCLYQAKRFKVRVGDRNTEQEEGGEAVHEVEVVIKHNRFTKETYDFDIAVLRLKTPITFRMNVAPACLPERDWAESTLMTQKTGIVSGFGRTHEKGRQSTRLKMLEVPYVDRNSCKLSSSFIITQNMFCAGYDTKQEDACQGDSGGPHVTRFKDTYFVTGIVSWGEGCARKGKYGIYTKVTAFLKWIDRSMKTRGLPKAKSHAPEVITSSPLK
T2 sequence (P00742 41-179 partner limits assumed): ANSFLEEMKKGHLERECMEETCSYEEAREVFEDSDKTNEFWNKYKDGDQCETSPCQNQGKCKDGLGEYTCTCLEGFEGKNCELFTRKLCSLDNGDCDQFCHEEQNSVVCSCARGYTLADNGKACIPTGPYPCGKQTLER
T3 sequence (P08709 213-466 limits assumed): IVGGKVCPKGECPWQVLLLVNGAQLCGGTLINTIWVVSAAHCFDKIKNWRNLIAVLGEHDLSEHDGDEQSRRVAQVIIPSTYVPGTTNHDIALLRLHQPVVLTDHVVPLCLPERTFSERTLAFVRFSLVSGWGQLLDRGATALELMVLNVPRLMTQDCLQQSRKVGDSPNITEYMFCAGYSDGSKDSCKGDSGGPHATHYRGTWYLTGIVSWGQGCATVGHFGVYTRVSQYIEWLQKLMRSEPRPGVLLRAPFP
T3 sequence (P08709 61-212 partner limits assumed): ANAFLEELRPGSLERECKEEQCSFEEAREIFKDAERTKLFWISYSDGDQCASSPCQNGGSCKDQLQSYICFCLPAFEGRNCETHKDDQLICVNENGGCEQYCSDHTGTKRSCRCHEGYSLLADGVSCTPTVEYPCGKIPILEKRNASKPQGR
T3 sequence (P13726 33-251 partner limits assumed): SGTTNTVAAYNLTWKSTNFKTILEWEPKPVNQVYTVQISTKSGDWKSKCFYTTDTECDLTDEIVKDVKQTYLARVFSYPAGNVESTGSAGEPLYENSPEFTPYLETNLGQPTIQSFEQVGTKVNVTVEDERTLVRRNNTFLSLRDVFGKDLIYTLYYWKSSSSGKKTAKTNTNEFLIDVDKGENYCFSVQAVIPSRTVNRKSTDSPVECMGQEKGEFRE
T1 sequence (P00761 9-231): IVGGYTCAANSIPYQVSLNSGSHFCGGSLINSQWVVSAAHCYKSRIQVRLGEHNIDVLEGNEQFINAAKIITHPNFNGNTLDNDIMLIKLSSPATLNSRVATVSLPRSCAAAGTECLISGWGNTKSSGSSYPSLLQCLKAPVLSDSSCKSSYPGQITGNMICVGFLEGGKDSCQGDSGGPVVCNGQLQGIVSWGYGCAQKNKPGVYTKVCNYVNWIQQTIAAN

Question: How did the IC50 [1] turn out when `N=C(N)NCCC[C@H](NC(=O)Cn1c(=O)c(NS(=O)(=O)Cc2ccccc2)cc2ccccc21)C(=O)c1nccs1` [Example 1] was run?
Answer: Its IC50 is 0.21 µM.

Question: What about the IC50 (human factor Xa) of the same molecule?
Answer: Its IC50 is 0.07 µM.

Question: And the IC50 (human thrombin)?
Answer: The IC50 was 0.7 µM.

Question: And the IC50 [2]?
Answer: Its IC50 is 4.6 µM.

Question: Which IC50 [1] does the source give for `N=C(N)c1ccc(CNC(=O)Cn2c(=O)c(NS(=O)(=O)Cc3ccccc3)cc3ccccc32)cc1` [Example 2, N-[[4-[(amino)iminomethyl]phenyl]methyll]-2-[3-benzylsulfonyl-amino-2-oxo-2H-quinolin-1-yl]acetamide] here?
Answer: Its IC50 is 0.5 µM.

Question: What about the IC50 (human factor Xa) of the same molecule?
Answer: Its IC50 is 7.7 µM.

Question: And the IC50 (human thrombin)?
Answer: Its IC50 is 5.5 µM.

Question: And the IC50 [2]?
Answer: The IC50 was 46 µM.

Question: What does the source list for `N=C(N)c1ccc(CNC(=O)Cn2c(=O)c(NCCc3ccccc3)cc3ccccc32)cc1` [Example 3]?
Answer: IC50 [1]: 0.86 µM; IC50 (human factor Xa): > 30 µM; IC50 (human thrombin): 11 µM; IC50 [2]: 26.1 µM

Question: How did the IC50 [1] turn out when `N=C(N)c1ccc(CNC(=O)Cn2c(=O)c(NS(=O)(=O)c3ccccc3)cc3ccccc32)cc1` [Example 4] was run?
Answer: Its IC50 is 0.48 µM.

Question: What about the IC50 (human factor Xa) of the same molecule?
Answer: Its IC50 is 23.1 µM.

Question: What about the IC50 (human thrombin) of the same molecule?
Answer: Its IC50 is 22.7 µM.

Question: What about the IC50 [2] of the same molecule?
Answer: The IC50 was > 30 µM.

Question: Which IC50 [1] does the source give for `Nc1ccc(CCNC(=O)Cn2c(=O)c(NS(=O)(=O)Cc3ccccc3)cc3ccccc32)cc1` [Example 6] here?
Answer: The IC50 was > 30 µM.

Question: What about the IC50 (human factor Xa) of the same molecule?
Answer: The IC50 was > 30 µM.

Question: What about the IC50 (human thrombin) of the same molecule?
Answer: Its IC50 is > 30 µM.

Question: What about the IC50 [2] of the same molecule?
Answer: Its IC50 is > 30 µM.

Question: `NCCCCNC(=O)Cn1c(=O)c(NS(=O)(=O)Cc2ccccc2)cc2ccccc21` [Example 7] was tested. Which IC50 [1] did it give?
Answer: The IC50 was > 30 µM.

Question: What about the IC50 (human factor Xa) of the same molecule?
Answer: Its IC50 is > 30 µM.

Question: And the IC50 (human thrombin)?
Answer: The IC50 was > 30 µM.

Question: What about the IC50 [2] of the same molecule?
Answer: The IC50 was > 30 µM.

Question: For `NCCCCCNC(=O)Cn1c(=O)c(NS(=O)(=O)Cc2ccccc2)cc2ccccc21` [Example 8], which IC50 [1] is on record?
Answer: Its IC50 is > 30 µM.

Question: And the IC50 (human factor Xa)?
Answer: Its IC50 is > 30 µM.

Question: And the IC50 (human thrombin)?
Answer: Its IC50 is > 30 µM.

Question: And the IC50 [2]?
Answer: Its IC50 is > 30 µM.

Question: How did the IC50 [1] turn out when `CN(C)CCCCCCNC(=O)Cn1c(=O)c(NS(=O)(=O)Cc2ccccc2)cc2ccccc21` [Example 9] was run?
Answer: The IC50 was > 30 µM.

Question: And the IC50 (human factor Xa)?
Answer: The IC50 was > 30 µM.

Question: What about the IC50 (human thrombin) of the same molecule?
Answer: Its IC50 is > 30 µM.

Question: What about the IC50 [2] of the same molecule?
Answer: Its IC50 is > 30 µM.

Question: Which results are given for `NCc1ccc(CNC(=O)Cn2c(=O)c(NS(=O)(=O)Cc3ccccc3)cc3ccccc32)cc1` [Example 10]?
Answer: IC50 [1]: > 30 µM; IC50 (human factor Xa): > 30 µM; IC50 (human thrombin): > 30 µM; IC50 [2]: > 30 µM

Question: For `NCc1cccc(CNC(=O)Cn2c(=O)c(NS(=O)(=O)Cc3ccccc3)cc3ccccc32)c1` [Example 11], which IC50 [1] is on record?
Answer: Its IC50 is > 30 µM.

Question: What about the IC50 (human factor Xa) of the same molecule?
Answer: Its IC50 is > 30 µM.

Question: And the IC50 (human thrombin)?
Answer: The IC50 was > 30 µM.

Question: And the IC50 [2]?
Answer: Its IC50 is > 30 µM.

Question: Which IC50 [1] does the source give for `O=C(Cn1c(=O)c(NS(=O)(=O)Cc2ccccc2)cc2ccccc21)NCCCn1ccnc1` [Example 12] here?
Answer: Its IC50 is > 30 µM.

Question: What about the IC50 (human factor Xa) of the same molecule?
Answer: Its IC50 is > 30 µM.

Question: And the IC50 (human thrombin)?
Answer: Its IC50 is > 30 µM.

Question: And the IC50 [2]?
Answer: The IC50 was > 30 µM.

Question: Which results are given for `O=C(Cn1c(=O)c(NS(=O)(=O)Cc2ccccc2)cc2ccccc21)NCCc1cnc[nH]1` [Example 13]?
Answer: IC50 [1]: > 30 µM; IC50 (human factor Xa): > 30 µM; IC50 (human thrombin): > 30 µM; IC50 [2]: > 30 µM

Question: With `O=C(Cn1c(=O)c(NS(=O)(=O)Cc2ccccc2)cc2ccccc21)NCCc1cccnc1` [Example 14] as the molecule, how does the IC50 [1] read?
Answer: Its IC50 is > 30 µM.

Question: And the IC50 (human factor Xa)?
Answer: Its IC50 is > 30 µM.

Question: What about the IC50 (human thrombin) of the same molecule?
Answer: The IC50 was > 30 µM.

Question: What about the IC50 [2] of the same molecule?
Answer: The IC50 was > 30 µM.

Question: Which results are given for `CN1CCC(CCCNC(=O)Cn2c(=O)c(NS(=O)(=O)Cc3ccccc3)cc3ccccc32)CC1` [Example 15]?
Answer: IC50 [1]: > 30 µM; IC50 (human factor Xa): > 30 µM; IC50 (human thrombin): > 30 µM; IC50 [2]: > 30 µM

Question: `Nc1ccc(CNC(=O)Cn2c(=O)c(NS(=O)(=O)Cc3ccccc3)cc3ccccc32)cc1` [Example 16] was tested. Which IC50 [1] did it give?
Answer: The IC50 was > 30 µM.

Question: What about the IC50 (human factor Xa) of the same molecule?
Answer: The IC50 was > 30 µM.

Question: And the IC50 (human thrombin)?
Answer: The IC50 was > 30 µM.

Question: What about the IC50 [2] of the same molecule?
Answer: Its IC50 is > 30 µM.

Question: Which IC50 [1] does the source give for `N=C(N)NCCC[C@H](NC(=O)Cn1c(CCc2ccccc2)ccc(NS(=O)(=O)Cc2ccccc2)c1=O)C(=O)c1nccs1` [Example 17, N-[2(S)-2-[1-Oxo-1-(2-thiazolyl)]-5-[[(amino)iminomethyl]amino]pentyl]-2-[6-(2-phenylethyl)-2-oxo-3-[[(phenylmethyl)sulfonyl]amino]-1(2H)-pyrid-1-yl]acetamide] here?
Answer: The IC50 was 0.3 µM.

Question: What about the IC50 (human factor Xa) of the same molecule?
Answer: Its IC50 is 0.1 µM.

Question: And the IC50 (human thrombin)?
Answer: The IC50 was 0.2 µM.

Question: What about the IC50 [2] of the same molecule?
Answer: Its IC50 is 1.1 µM.

Question: What does the source list for `Cc1ccc(NS(=O)(=O)Cc2ccccc2)c(=O)n1CC(=O)N[C@@H](CCCNC(=N)N)C(=O)c1nccs1` [Example 18, N-[2(S)-2-[1-Oxo-1-(2-thiazolyl)]-5-[[(amino)iminomethyl]amino]pentyl]-2-[6-methyl-2-oxo-3-[[(phenylmethyl)sulfonyl]amino]-1(2H)-pyrid-1-yl]acetamide]?
Answer: IC50 [1]: 0.2 µM; IC50 (human factor Xa): < 4 µM; IC50 (human thrombin): < 0.04 µM; IC50 [2]: 0.8 µM

Question: For `N=C(N)c1ccc(CNC(=O)Cn2c(CCc3ccccc3)ccc(NS(=O)(=O)Cc3ccccc3)c2=O)cc1` [Example 19, N-[[4-[(amino)iminomethyl]phenyl]methyl)-2-[6-(2-phenylethyl)-2-oxo-3-[[(phenylmethyl)sulfonyl]amino]-1(2H)-pyrid-1-yl]acetamide], which IC50 [1] is on record?
Answer: Its IC50 is < 0.1 µM.

Question: What about the IC50 (human factor Xa) of the same molecule?
Answer: The IC50 was 4.1 µM.

Question: And the IC50 (human thrombin)?
Answer: Its IC50 is 0.4 µM.

Question: What about the IC50 [2] of the same molecule?
Answer: The IC50 was 18 µM.

Question: How did the IC50 [1] turn out when `Cc1ccc(NS(=O)(=O)Cc2ccccc2)c(=O)n1CC(=O)NCc1ccc(C(=N)N)cc1` [Example 20, N-[(4-[[amino)iminomethyl]phenyl]methyl]-2-[6-methyl-2-oxo-3-[[(phenylmethyl)sulfonyl]amino]-1(2H)-pyrid-1-yl]acetamide] was run?
Answer: Its IC50 is 0.5 µM.

Question: And the IC50 (human factor Xa)?
Answer: The IC50 was 5.7 µM.

Question: What about the IC50 (human thrombin) of the same molecule?
Answer: Its IC50 is 0.3 µM.

Question: What about the IC50 [2] of the same molecule?
Answer: The IC50 was 23 µM.

Question: What does the source list for `N=C(N)N1CCC(CNC(=O)Cn2c(CCc3ccccc3)ccc(NS(=O)(=O)Cc3ccccc3)c2=O)CC1` [Example 21]?
Answer: IC50 [1]: 0.6 µM; IC50 (human factor Xa): 17 µM; IC50 (human thrombin): 0.5 µM; IC50 [2]: > 30 µM

Question: `Cc1ccc(NS(=O)(=O)Cc2ccccc2)c(=O)n1CC(=O)NCC1CCN(C(=N)N)CC1` [Example 22] was tested. Which IC50 [1] did it give?
Answer: Its IC50 is 11.1 µM.

Question: What about the IC50 [2] of the same molecule?
Answer: The IC50 was > 30 µM.
